What was measured:
LNCaP cells = experiment: MTT viability assay; format: cell-based; settings: Homo sapiens, 24 h, DMSO as reference, read-out: cell viability
Protocol: Protein kinase CK2 is essential for the survival of cells. Therefore, we tested the impact of the CK2 inhibitors on the viability of cells in both lines. The inhibitors were applied in increasing concentrations up to 50 µM to growing cell cultures and the viability was analyzed by a MTT assay after 24 h of treatment. The effect of the compounds on the growth of the normal ARPE19 cells was rather moderate (Figure 5A). 5 had no impact on ARPE19 cell viability. 4b reduced the viability to 70% in its highest concentration and 4a exerted the strongest influence by reducing the ratio of viable cells to 40% when applying a 50 µM dose. In contrast LNCaP cells were strongly impaired by the treatment with the dibenzofurans (Figure 5B): Using 10 µM of the different inhibitors, we only observed an effect with 4b. However, increasing the concentration to 20, 25 and 50 µM exerted a drastic impact on the viability of LNCaP cells. With 50 µM 4b a viability rate of final 5% was obtained, whereas 4a and 5 reduced the viability to 30 to 35%. Thus, the inhibitors in particular affected the viability of LNCaP carcinoma cells, but not of normal retinal pigment epithelium cells. […] Even after 48 h of growth under CK2 inhibition ARPE19 cells appeared rather unaffected by the treatment. […]
Figure 5 Effects of dibenzofuran inhibitors on cell viability. […] Cell viability was determined using the MTT assay after 24 h of incubation. […]
ARPE19 cells (ATCC Number: CRL-2302), retinal pigment epithelia (RPE) cells, were maintained at 37 °C and 5% CO2 in Dulbecco’s modified Eagles medium (DMEM) supplemented with 2 mM L-glutamine, 1 mM gentamicin and 10% fetal calf serum (FCS) at 37 °C in an atmosphere enriched with 5% CO2. […] For the evaluation of cell morphology ARPE19 and LNCaP cells were analysed with bright field microscopy using a Axiovert microscope from Zeiss (Jena, Germany).
Cell proliferation and viability was determined using a colorimetric MTT-based assay (MTT: 3-[4,5-dimethylthiazol-2-yl]-2,5-diphenyl tetrazolium bromide, Sigma-Aldrich, Deisenhofen, Germany) as described in [72]. […]

PARP1 in LNCaP cells = experiment: PARP1 cleavage, Western blot; format: cell-based, human
Protocol: Figure 6 Induction of apoptosis in prostate cancer cell line LNCaP and non-neoplastic retinal pigment epithelial cell line ARPE19. (A) ARPE19 or LNCaP cells were treated with DMSO as control (0 μM) or with 25 or 50 μM 4b, 4a or 5 for 24 or 48 h. Activity of caspases 3 and 7 was determined using the luminescent Caspase-Glo® 3/7 assay according to the technical bulletin of the manufacturer. Median relative light units (RLU) + standard deviation from at least three independent experiments are shown in the bar graph. (B) Cells were treated as described before. 75 μg cell extract was separated in a 10% SDS polyacrylamide gel and analyzed in a Western blot analysis with a rabbit polyclonal antibody against PARP1. + is a positive control for PARP cleavage.
In addition to the luminescence assay, Western blot analysis was performed to check PARP1-cleavage (Figure 6B). Therefore specific antibodies for the detection of the full-length PARP1 (113 kDa) and the larger cleavage fragment of PARP1 (89 kDa) were used. In ARPE19 cells no cleavage product of PARP1 was detectable.
Proteins were separated by SDS polyacrylamide gel electrophoresis and blotted onto a PVDF membrane. After blocking (1 h with PBS-Tween20 with 5% dry milk) the membrane was incubated with appropriate dilutions of primary antibodies in PBS-Tween20 with 1% dry milk for another hour at room temperature or at 4 °C overnight. Then the membrane was washed twice for 10 min with PBS-Tween20 with 1% dry milk. Incubation with the peroxidase-coupled secondary antibody (anti-rabbit 1:30,000, anti-mouse 1:10,000) followed for 1 h. The membrane was washed again twice for 10 min with PBS-Tween20. Signals were developed and visualized by the Lumilight system of Roche Diagnostics GmbH. For the detection of the apoptose marker protein PARP we used a polyclonal PARP antibody (Cell Signaling Technology, Frankfurt, Germany), a GAPDH specific antibody (Santa Cruz Biotechnologies, Dallas, TX, USA) was used for loading control. […]

[1] = test system: panel of 61 human protein kinases; experiment: kinase selectivity profile, whole panel; format: biochemical; settings: 10 µM inhibitor, 10 µM ATP
Description: This demands further investigation.

number of kinases out of the 61 kinases inhibited to more than 70% [1]	Structure (SMILES)	viability at 50 µM (LNCaP cells)	PARP1 cleavage (PARP1 in LNCaP cells; 25 or 50 µM, 24 or 48 h)	PARP1 cleavage (PARP1 in LNCaP cells; 50 µM)
6	COc1ccc(N/C=C2\C(=O)CCc3c2oc2cc(Cl)c(O)c(Cl)c32)cc1 [4a, 7,9-dichloro-1,2-dihydro-8-hydroxy-4-[(4-methoxyphenylamino)methylene]dibenzo[b,d]furan-3(2H)-one]	30 to 35%	did not result in cleavage of PARP1	–
–	Cc1ccc(NC=C2C(=O)CCc3c2oc2c(Cl)c(Cl)c(O)cc32)cc1 [4b, 6,7-dichloro-1,4-dihydro-8-hydroxy-4-[(4-methylphenylamino)methylene]dibenzo[b,d]furan-3(2H)-one]	5%	–	cleavage of PARP1
11	COc1ccc(/N=C/c2c(O)ccc3c2oc2cc(Cl)c(O)c(Cl)c23)cc1 [compound 5, (E)-1,3-dichloro-6-[(4-methoxyphenylimino)methyl]dibenzo[b,d]furan-2,7-diol]	30 to 35%	–	cleavage of PARP1

— article PMC5874719, “A π-Halogen Bond of Dibenzofuranones with the Gatekeeper Phe113 in Human Protein Kinase CK2 Leads to Potent Tight Binding Inhibitors” (Pharmaceuticals, 2018)
